Experimental data reported in DBAASP.
In brackets after ≈: the same amount, converted by molar mass.

Key:
Test in all cases: ≥ marks a high value that may be exact or a test limit, other limits are often not marked, values filed in µg/mL are converted to µM
[1] = system: Bacillus subtilis DSM 347
[2] = system: Franconibacter helveticus DSM 18390
[3] = system: Escherichia coli DSM 1116
[4] = system: Staphylococcus xylosus DSM 20287
[5] = system: Staphylococcus saprophyticus
Salmonella enterica = system: Salmonella enterica
Proteus mirabilis = system: Proteus mirabilis
[6] = system: Staphylococcus haemolyticus
Klebsiella pneumoniae = system: Klebsiella pneumoniae
Pseudomonas aeruginosa = system: Pseudomonas aeruginosa
[7] = system: Escherichia coli ATCC 35218
Serratia marcescens = system: Serratia marcescens
Staphylococcus aureus = system: Staphylococcus aureus
Klebsiella oxytoca = system: Klebsiella oxytoca
Klebsiella aerogenes = system: Klebsiella aerogenes
[8] = system: Staphylococcus epidermidis
Enterobacter cloacae = system: Enterobacter cloacae
Acinetobacter baumannii = system: Acinetobacter baumannii
Escherichia coli UB1005 = system: Escherichia coli UB1005
Escherichia coli K99 = system: Escherichia coli K99
[9] = system: Enterococcus faecalis ATCC 29212
[10] = system: Salmonella enterica subsp. enterica serovar Pullorum C79-13
[11] = system: Escherichia coli ATCC 25922
[12] = system: Salmonella enterica subsp. enterica serovar Typhimurium ATCC 14028
[13] = system: Staphylococcus epidermidis ATCC 12228
[14] = system: Bacillus subtilis CMCC 63501
[15] = system: Staphylococcus aureus ATCC 29213
[16] = system: Staphylococcus aureus ATCC 25923
Escherichia coli = system: Escherichia coli
[17] = system: Salmonella enterica subsp. enterica serovar Typhimurium C77-31
Escherichia coli K88 = system: Escherichia coli K88
[18] = system: Pseudomonas aeruginosa 25349
Escherichia coli 078 = system: Escherichia coli 078
[19] = system: Candida albicans ATCC 24433
[20] = system: Trichophyton rubrum ATCC 28189
[21] = system: Candida parapsilosis ATCC 22019
[22] = system: Staphylococcus aureus VRSA1
[23] = system: Staphylococcus aureus VISA3
[24] = system: Staphylococcus aureus VRSA2
[25] = system: Enterococcus faecium BCRC 15B0132
[26] = system: Staphylococcus aureus VISA1
[27] = system: Klebsiella pneumoniae E406-17
[28] = system: Enterococcus faecium V286-17
[29] = system: Pseudomonas aeruginosa E411-17
Escherichia coli E423-17 = system: Escherichia coli E423-17
[30] = system: Staphylococcus aureus Newman
[31] = system: Staphylococcus aureus USA 400
[32] = system: Acinetobacter baumannii B28-16
[33] = system: Staphylococcus aureus USA 300
[34] = system: Staphylococcus aureus M838-17
[35] = system: Staphylococcus aureus MU50
[36] = system: Staphylococcus aureus UAMS-1
[37] = system: Staphylococcus aureus USA 200

CC[C@H](C)[C@H](N)C(=O)N[C@@H](C)C(=O)N[C@@H](CCCCN)C(=O)N[C@H](C(=O)N[C@@H](C)C(=O)NCC(=O)N[C@@H](CCCCN)C(=O)N[C@H](C(=O)N[C@@H](C)C(=O)N[C@@H](CCCCN)C(=O)N[C@H](C(=O)N[C@@H](C)C(=O)NCC(=O)N[C@@H](CCCCN)C(=O)N[C@H](C(=O)N[C@@H](C)C(=O)N[C@@H](CCCCN)C(=O)N[C@H](C(=O)N[C@@H](C)C(=O)NCC(=O)N[C@@H](CCCCN)C(=O)N[C@H](C(=O)N[C@@H](C)C(=O)N[C@@H](CCCCN)C(N)=O)[C@@H](C)CC)[C@@H](C)CC)[C@@H](C)CC)[C@@H](C)CC)[C@@H](C)CC)[C@@H](C)CC [IAKIAGKIAKIAGKIAKIAGKIAK]
MIC [1]: 0.842 µM (≈ 2 µg/mL)
MIC [2]: 1.19 µM (≈ 2.83 µg/mL)
MIC [3]: 1.68 µM (≈ 4 µg/mL)
MIC [4]: 0.842 µM (≈ 2 µg/mL)

CC[C@H](C)[C@H](NC(=O)[C@H](CCCCN)NC(=O)[C@H](C)NC(=O)[C@H](CC(C)C)NC(=O)[C@H](Cc1ccccc1)NC(=O)[C@H](CCCN=C(N)N)NC(=O)[C@H](C)NC(=O)[C@H](Cc1ccc(O)cc1)NC(=O)[C@H](CCCN=C(N)N)NC(=O)[C@H](Cc1cnc[nH]1)NC(=O)[C@H](Cc1ccccc1)NC(=O)[C@H](Cc1ccc(O)cc1)NC(=O)[C@H](CCCN=C(N)N)NC(=O)[C@H](CCC(N)=O)NC(=O)[C@@H](N)Cc1ccccc1)C(=O)N[C@@H](Cc1c[nH]c2ccccc12)C(=O)N[C@@H](CCCCN)C(=O)NCC(=O)O [FQRYFHRYARFLAKIWKG]
MIC [5]: 10 µM (≈ 23.9 µg/mL)
MIC (Salmonella enterica): 10 µM (≈ 23.9 µg/mL)
MIC (Proteus mirabilis): 10 µM (≈ 23.9 µg/mL)
MIC [6]: 10 µM (≈ 23.9 µg/mL)
MIC (Klebsiella pneumoniae): 1.4 µM (≈ 3.34 µg/mL)
MIC (Pseudomonas aeruginosa): 2.8 µM (≈ 6.69 µg/mL)
MIC [7]: 0.9 µM (≈ 2.15 µg/mL)
MIC (Serratia marcescens): 10 µM (≈ 23.9 µg/mL)
MIC (Staphylococcus aureus): 1.8 µM (≈ 4.3 µg/mL)
MIC (Klebsiella oxytoca): 3.6 µM (≈ 8.6 µg/mL)
MIC (Klebsiella aerogenes): 10 µM (≈ 23.9 µg/mL)
MIC [8]: 10 µM (≈ 23.9 µg/mL)
MIC (Enterobacter cloacae): 10 µM (≈ 23.9 µg/mL)
MIC (Acinetobacter baumannii): 10 µM (≈ 23.9 µg/mL)

CC[C@H](C)[C@H](NC(=O)[C@H](Cc1c[nH]c2ccccc12)NC(=O)[C@H](CCCCN)NC(=O)[C@H](CC(C)C)NC(=O)[C@@H](NC(=O)[C@H](CCCCN)NC(=O)CNC(=O)[C@@H](NC(=O)[C@H](CCCCN)NC(=O)[C@H](Cc1c[nH]c2ccccc12)NC(=O)[C@H](CC(C)C)NC(=O)[C@@H](N)CCCN=C(N)N)[C@@H](C)CC)C(C)C)C(N)=O [RLWKIGKVLKWI]
MIC (Escherichia coli UB1005): 1 µM (≈ 1.54 µg/mL)
MIC (Escherichia coli K99): 2 µM (≈ 3.08 µg/mL)
MIC [9]: 4 µM (≈ 6.16 µg/mL)
MIC [10]: 1 µM (≈ 1.54 µg/mL)
MIC [11]: 2 µM (≈ 3.08 µg/mL)
MIC [12]: 2 µM (≈ 3.08 µg/mL)
MIC [13]: 4 µM (≈ 6.16 µg/mL)
MIC [14]: 1 µM (≈ 1.54 µg/mL)
MIC (Staphylococcus aureus): 2 µM (≈ 3.08 µg/mL)
MIC [15]: 4 µM (≈ 6.16 µg/mL)
MIC [16]: 2 µM (≈ 3.08 µg/mL)
MIC (Escherichia coli): 2 µM (≈ 3.08 µg/mL)
MIC [17]: 4 µM (≈ 6.16 µg/mL)
MIC (Escherichia coli K88): 1 µM (≈ 1.54 µg/mL)
MIC [18]: 4 µM (≈ 6.16 µg/mL)
MIC (Escherichia coli 078): 2 µM (≈ 3.08 µg/mL)
MIC (Acinetobacter baumannii): 2 µM (≈ 3.08 µg/mL)

CC[C@H](C)[C@H](NC(=O)[C@H](CC(C)C)NC(=O)[C@H](CCC(=O)O)NC(=O)[C@H](CO)NC(=O)[C@H](CCCN=C(N)N)NC(=O)[C@@H](N)CO)C(=O)N[C@H](C(=O)N[C@@H](CCCN=C(N)N)C(=O)N[C@@H](CCC(N)=O)C(=O)N[C@@H](CCCN=C(N)N)C(=O)N[C@@H](CC(C)C)C(=O)N[C@@H](Cc1ccccc1)C(N)=O)C(C)C [SRSELIVRQRLF]
MIC [19]: ≥ 266 µM
MIC (Staphylococcus aureus): > 266 µM
MIC (Escherichia coli): > 266 µM
MIC [20]: ≥ 266 µM
MIC [21]: ≥ 266 µM

CC(=O)N[C@@H](C)C(=O)N[C@@H](CCCCN)C(=O)N[C@@H](CCCN=C(N)N)C(=O)N[C@@H](Cc1ccccc1)C(=O)N[C@@H](Cc1ccccc1)C(=O)NCC(=O)N[C@@H](Cc1ccc(O)cc1)C(=O)N[C@@H](CCCCN)C(=O)N[C@@H](CCCN=C(N)N)C(=O)N[C@@H](CCCCN)C(=O)N[C@@H](Cc1ccccc1)C(=O)N[C@@H](Cc1ccccc1)C(N)=O [AKRFFGYKRKFF]
MIC [22]: ≥ 40.1 µM
MIC [23]: ≥ 40.1 µM
MIC [11]: 40.1 µM (≈ 65.6 µg/mL)
MIC [24]: ≥ 40.1 µM
MIC [25]: ≥ 40.1 µM
MIC [26]: ≥ 40.1 µM

CC(C)[C@H](NC(=O)[C@H](Cc1c[nH]c2ccccc12)NC(=O)[C@H](Cc1c[nH]c2ccccc12)NC(=O)[C@H](Cc1c[nH]c2ccccc12)NC(=O)[C@H](Cc1c[nH]c2ccccc12)NC(=O)[C@H](CCCN=C(N)N)NC(=O)[C@H](CCCN=C(N)N)NC(=O)[C@@H](N)CCCN=C(N)N)C(N)=O [RRRWWWWV]
MIC [27]: 11.3 µM (≈ 15 µg/mL)
MIC [28]: 2 µM (≈ 2.66 µg/mL)
MIC [29]: 5.66 µM (≈ 7.52 µg/mL)
MIC (Escherichia coli E423-17): 2 µM (≈ 2.66 µg/mL)
MIC (Klebsiella pneumoniae): 11.3 µM (≈ 15 µg/mL)
MIC [30]: 4 µM (≈ 5.32 µg/mL)
MIC [31]: 4 µM (≈ 5.32 µg/mL)
MIC [32]: 8 µM (≈ 10.6 µg/mL)
MIC (Staphylococcus aureus): 4 µM (≈ 5.32 µg/mL)
MIC [33]: 2.83 µM (≈ 3.76 µg/mL)
MIC [34]: 3.1 µM (≈ 4.12 µg/mL)
MIC [35]: 8 µM (≈ 10.6 µg/mL)
MIC [36]: 4 µM (≈ 5.32 µg/mL)
MIC [37]: 4 µM (≈ 5.32 µg/mL)
